Measured values from PubChem BioAssay AID1259407 (Chemical Carcinogenesis Research Information System (CCRIS), 2018).
Calls of active or inactive are those of the source. The rule behind the calls is not given here.

Test system: CCRIS mutagenicity, Ames/micronucleus/aberration tests
Assay: CCRIS mutagenicity studies
[1] = Test System: AMES SALMONELLA TYPHIMURIUM, Strain/Indicator: TA1537, Metabolic Activation: NONE, Method: STANDARD PLATE
[2] = Test System: MOUSE LYMPHOMA, Strain/Indicator: L5178Y (TK+/TK-), Metabolic Activation: NONE, Method: SUSPENSION/PLATE
[3] = Test System: MOUSE LYMPHOMA, Strain/Indicator: L5178Y (TK+/TK-), Metabolic Activation: RAT, LIVER, S-9, AROCLOR 1254, Method: SUSPENSION/PLATE
[4] = Test System: AMES SALMONELLA TYPHIMURIUM, Strain/Indicator: TA98, Metabolic Activation: NONE, Method: PREINCUBATION
[5] = Test System: AMES SALMONELLA TYPHIMURIUM, Strain/Indicator: TA98, Metabolic Activation: NONE, Method: STANDARD PLATE
[6] = Test System: AMES SALMONELLA TYPHIMURIUM, Strain/Indicator: TA100, Metabolic Activation: NONE, Method: PREINCUBATION
[7] = Test System: AMES SALMONELLA TYPHIMURIUM, Strain/Indicator: TA100, Metabolic Activation: NONE, Method: STANDARD PLATE
[8] = End Point: In vitro micronucleus, Test System: Human lymphoblastoid TK6 cells, Metabolic Activation: None

In the case of `c1cscn1`, the mutagenic call (Test System: AMES SALMONELLA TYPHIMURIUM, Strain/Indicator: TA98, Metabolic Activation: HAMSTER, LIVER, S-9, AROCLOR 1254, Method: STANDARD PLATE) was “inactive; negative”, the mutagenic call (Test System: AMES SALMONELLA TYPHIMURIUM, Strain/Indicator: TA98, Metabolic Activation: RAT, LIVER, S-9, AROCLOR 1254, Method: STANDARD PLATE) was “inactive; negative” and the mutagenic call (Test System: AMES SALMONELLA TYPHIMURIUM, Strain/Indicator: TA100, Metabolic Activation: HAMSTER, LIVER, S-9, AROCLOR 1254, Method: STANDARD PLATE) was “inactive; negative”. For the same molecule, the mutagenic call (Test System: AMES SALMONELLA TYPHIMURIUM, Strain/Indicator: TA1535, Metabolic Activation: HAMSTER, LIVER, S-9, AROCLOR 1254, Method: STANDARD PLATE) was “inactive; negative”, the mutagenic call (Test System: AMES SALMONELLA TYPHIMURIUM, Strain/Indicator: TA1535, Metabolic Activation: NONE, Method: STANDARD PLATE) was “inactive; negative” and the mutagenic call (Test System: AMES SALMONELLA TYPHIMURIUM, Strain/Indicator: TA1535, Metabolic Activation: RAT, LIVER, S-9, AROCLOR 1254, Method: STANDARD PLATE) was “inactive; negative”. For the same molecule, the mutagenic call (Test System: AMES SALMONELLA TYPHIMURIUM, Strain/Indicator: TA1537, Metabolic Activation: HAMSTER, LIVER, S-9, AROCLOR 1254, Method: STANDARD PLATE) was “inactive; negative”, the mutagenic call [1] was “inactive; negative” and the mutagenic call (Test System: AMES SALMONELLA TYPHIMURIUM, Strain/Indicator: TA1537, Metabolic Activation: RAT, LIVER, S-9, AROCLOR 1254, Method: STANDARD PLATE) was “inactive; negative”. For the same molecule, the mutagenic call (Test System: AMES SALMONELLA TYPHIMURIUM, Strain/Indicator: TA1538, Metabolic Activation: HAMSTER, LIVER, S-9, AROCLOR 1254, Method: STANDARD PLATE) was “inactive; negative”, the mutagenic call (Test System: AMES SALMONELLA TYPHIMURIUM, Strain/Indicator: TA1538, Metabolic Activation: NONE, Method: STANDARD PLATE) was “inactive; negative” and the mutagenic call (Test System: AMES SALMONELLA TYPHIMURIUM, Strain/Indicator: TA1538, Metabolic Activation: RAT, LIVER, S-9, AROCLOR 1254, Method: STANDARD PLATE) was “inactive; negative”. For the same molecule, the mutagenic call [2] was “inactive; negative. reevaluation of results: negative” and the mutagenic call [3] was “inactive; negative. reevaluation of results: negative”.

With `O=[N+]([O-])c1cc(Cl)cc(Cl)c1O` the mutagenic call [4] was “inactive; negative”, the mutagenic call [5] was “inactive; negative” and the mutagenic call [6] was “inactive; negative”. For the same molecule, the mutagenic call [7] was “inactive; negative” and the mutagenic call (Test System: CHINESE HAMSTER V-79, Strain/Indicator: V-79/6-THIOGUANINE, Metabolic Activation: NONE) was “inactive; negative”.

With `CC[C@@]1(O)C(=O)OCc2c1cc1n(c2=O)Cc2cc3ccccc3nc2-1` the mutagenic call [8] was “active; positive (no dose response; toxicity may play a role)”, the mutagenic call (End Point: In vivo micronucleus, Test System: Peripheral blood reticulocytes, Species: Mouse, Strain/Sex: CD2F1, Route: Oral) was “active; positive” and the mutagenic call (End Point: In vivo micronucleus, Test System: Peripheral blood reticulocytes, Species: Mouse, Strain/Sex: Muta Mouse, Route: Oral) was “active; positive”. The mutagenic call (Test System: CHINESE HAMSTER V-79, Strain/Indicator: V-79 (HPRT)/6-THIOGUANINE, Metabolic Activation: NONE) was “active; positive”, the mutagenic call (Test System: LacZ plasmid mouse (C57BL/6J transgenic), Strain/Indicator: LacZ Mutant frequency, Method: Bone marrow and liver harvested 35 days after last dose) was “inactive; negative” and the mutagenic call (Test System: LacZ transgenic mouse (Muta Mouse), Strain/Indicator: LacZ Mutant frequency, Method: Bone marrow and liver harvested 35 days after last dose) was “inactive; negative”. For the same molecule, the mutagenic call (Test System: LacZ transgenic mouse (Muta Mouse), Strain/Indicator: LacZ Mutant frequency, Method: Liver and kidney harvested 37 days after last dose) was “inactive; negative”.

In the case of `CN(Cc1cnc2nc(N)nc(N)c2n1)c1ccc(C(=O)N[C@@H](CCC(=O)O)C(=O)O)cc1`, the mutagenic call (End Point: IN VITRO MICRONUCLEUS, Test System: V79 CELLS, Metabolic Activation: NONE) was “inactive; negative”, the mutagenic call (End Point: IN VIVO CHROMOSOMAL ABERRATIONS, Test System: BONE MARROW, Species: MOUSE, Strain/Sex: SWISS/MALE, FEMALE, Route: INTRAPERITONEAL) was “active; positive (structural changes)” and the mutagenic call (End Point: IN VIVO MICRONUCLEUS, Test System: BONE MARROW, Species: MOUSE, Strain/Sex: SWISS/MALE, FEMALE, Route: INTRAPERITONEAL) was “active; positive”. For the same molecule, the mutagenic call [8] was “active; positive (p<0.001)”, the mutagenic call [4] was “inactive; negative” and the mutagenic call [5] was “inactive; negative”. The mutagenic call (Test System: AMES SALMONELLA TYPHIMURIUM, Strain/Indicator: TA98, Metabolic Activation: S-9, Method: PREINCUBATION) was “inactive; negative”, the mutagenic call (Test System: AMES SALMONELLA TYPHIMURIUM, Strain/Indicator: TA98, Metabolic Activation: S-9, Method: STANDARD PLATE) was “inactive; negative” and the mutagenic call [6] was “inactive; negative”. The mutagenic call [7] was “inactive; negative”, the mutagenic call (Test System: AMES SALMONELLA TYPHIMURIUM, Strain/Indicator: TA100, Metabolic Activation: S-9, Method: PREINCUBATION) was “inactive; negative” and the mutagenic call (Test System: AMES SALMONELLA TYPHIMURIUM, Strain/Indicator: TA100, Metabolic Activation: S-9, Method: STANDARD PLATE) was “inactive; negative”. For the same molecule, the mutagenic call (Test System: AMES SALMONELLA TYPHIMURIUM, Strain/Indicator: TA102, Metabolic Activation: NONE, Method: STANDARD PLATE) was “inactive; negative”, the mutagenic call [1] was “inactive; negative” and the mutagenic call (Test System: CHINESE HAMSTER V-79, Strain/Indicator: V-79 (HGPRT)/6-THIOGUANINE, Metabolic Activation: NONE) was “inactive; negative”. The mutagenic call (Test System: CHINESE HAMSTER V-79, Strain/Indicator: V-79/6-THIOGUANINE, Metabolic Activation: NONE, Method: SUSPENSION/PLATE) was “inactive; negative”, the mutagenic call (Test System: CHINESE HAMSTER V-79, Strain/Indicator: V-79/6-THIOGUANINE, Metabolic Activation: RAT, LIVER, HEPATOCYTES, Method: SUSPENSION/PLATE) was “inactive; negative” and the mutagenic call (Test System: E. COLI, Strain/Indicator: WP2 (HCR), Metabolic Activation: NONE, Method: STANDARD PLATE) was “inactive; negative”. The mutagenic call (Test System: E. COLI, Strain/Indicator: WP2 (HCR), Metabolic Activation: S-9, Method: STANDARD PLATE) was “inactive; negative”, the mutagenic call (Test System: E. COLI, Strain/Indicator: WP2, Metabolic Activation: NONE, Method: STANDARD PLATE) was “active; positive” and the mutagenic call (Test System: MOUSE LYMPHOMA, Strain/Indicator: L5178Y (TK+/TK-), Metabolic Activation: NONE, Method: MICROWELL) was “active; positive”. For the same molecule, the mutagenic call [2] was “active; positive”, the mutagenic call [3] was “active; positive” and the mutagenic call (Test System: MOUSE LYMPHOMA, Strain/Indicator: L5178Y (TK+/TK-), Metabolic Activation: S-9, Method: MICROWELL) was “active; positive”.

With `C1=Cc2c(ccc3ccc4ccccc4c23)C1` the mutagenic call (Test System: AMES SALMONELLA TYPHIMURIUM, Strain/Indicator: TA100, Metabolic Activation: RAT, LIVER, S-9, AROCLOR 1254, Method: STANDARD PLATE) was “active; positive”.

`C=C(Br)C=O` was tested, and the mutagenic call (Test System: AMES SALMONELLA TYPHIMURIUM, Strain/Indicator: TA100, Metabolic Activation: NONE, Method: LIQUID INCUBATION) was “active; positive”, the mutagenic call [6] was “active; positive” and the mutagenic call (Test System: AMES SALMONELLA TYPHIMURIUM, Strain/Indicator: TA100, Metabolic Activation: NONE, Method: PREINCUBATION, LIQUID INCUBATION) was “active; positive”. For the same molecule, the mutagenic call [7] was “active; positive”, the mutagenic call (Test System: AMES SALMONELLA TYPHIMURIUM, Strain/Indicator: TA100, Metabolic Activation: RAT, LIVER, MICROSOMES, Method: PREINCUBATION) was “active; positive” and the mutagenic call (Test System: AMES SALMONELLA TYPHIMURIUM, Strain/Indicator: TA104, Metabolic Activation: NONE, Method: PREINCUBATION) was “active; positive”. The mutagenic call (Test System: AMES SALMONELLA TYPHIMURIUM, Strain/Indicator: TA1535, Metabolic Activation: NONE, Method: LIQUID INCUBATION) was “active; positive”, the mutagenic call (Test System: AMES SALMONELLA TYPHIMURIUM, Strain/Indicator: TA1535, Metabolic Activation: NONE, Method: PREINCUBATION, LIQUID INCUBATION) was “active; positive” and the mutagenic call (Test System: UDS RAT HEPATOCYTES, Strain/Indicator: THY INCORP, Metabolic Activation: NONE) was “inactive; negative”.
